We go through 7 molecules from ChEMBL document CHEMBL1201862, “PubChem BioAssay data set” (2004).

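Growth conditions: 96-well plates. Treatment: test compound, 48 hours, 5 concentrations. Analysis: linear interpolation between bracketing concentrations; unreached endpoints set to highest concentration. The concentration for 50% growth inhibition is given as GI50.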 Calls of active or inactive are those of the source. Rule as the data show it: active = GI50 up to about 1.1 µM and inactive = higher. Where only a bound is given, the exact number is not on record here.

Assay in all cases: inhibition of tumour cell growth, NCI panel, 48 h
In assay [1] the test system is SK-MEL-2.
The test system of assay [2] is EKVX.
Assay [3] deals with IGROV-1.
In assay [4] the test system is T47D.
The test system of assay [5] is OVCAR-3.
Assay [6] concerns UACC-62.
The subject of assay [7] is SR.
Assay [8] concerns DU-145.
The subject of assay [9] is SF-539.
In assay [10] the test system is SK-MEL-5.
The test system of assay [11] is NCI-H23.
Assay [12] relates to COLO 205.
The subject of assay [13] is KM12.
The test system of assay [14] is CCRF-CEM.
For assay [15], the system named is TK-10.
Assay [16] has as its system MOLT-4.
Assay [17] relates to RPMI-8226.
For assay [18], the system named is MDA-MB-435.
For assay [19], the system named is MCF7.
Assay [20] relates to UACC-257.

Turning to `CCc1c(CN)c(CC)c(CNC2=NCCN2)c(CC)c1CNC1=NCCN1`, the GI50 in assay [1], in assay [2], in [3], in [4], in [5] and in assay [6] was > 100 µM (inactive) throughout. For the same molecule, the GI50 in assay [7], in assay [8], in [9], in assay [10], in assay [11] and in assay [12] was > 100 µM (inactive) throughout. Also, the GI50 in assay [13], in assay [14], in assay [15], in assay [16], in [17] and in assay [18] was > 100 µM (inactive) throughout. Moreover, the GI50 in assay [19] and in assay [20] was > 100 µM (inactive) throughout.
On to `COC(=O)c1ccc2c(O)c(O)ccc2c1`, for which the GI50 is 1.18 µM (inactive) in assay [1]; 22.8 µM (inactive) in assay [2]; 17.2 µM (inactive) in [3]; 19.5 µM (inactive) in [4]; 7 µM (inactive) in [5]; 15.9 µM (inactive) in assay [6]. The GI50 in assay [7] is 2.6 µM (inactive); in assay [8], 16.4 µM (inactive); in assay [9], 19.1 µM (inactive); in [10] it was 4.45 µM (inactive); in assay [11] it was 5.28 µM (inactive); in [12] it was 13.6 µM (inactive). Moreover, the GI50 in [13] was 17.1 µM (inactive); in assay [14], 2.69 µM (inactive); in [15], 21.5 µM (inactive); in assay [16], 4.81 µM (inactive); in assay [17] it was 14.7 µM (inactive); in [18] it was 1.87 µM (inactive). In addition, the values for the GI50 in assay [19] and in assay [20] were 18.5 µM (inactive) and 14.9 µM (inactive), respectively.
For the molecule `O=C(/C(=C\I)c1ccccc1)c1ccccc1`, the GI50 was 7.8 µM (inactive) in [1]; 18.3 µM (inactive) in assay [2]; 10.8 µM (inactive) in [3]; 4.14 µM (inactive) in assay [4]; 2.24 µM (inactive) in assay [5]; 3.26 µM (inactive) in [6]. Further, the GI50 is 8.18 µM (inactive) in [7]; 7.16 µM (inactive) in [8]; 15.2 µM (inactive) in assay [9]; 17.3 µM (inactive) in [10]; 9.89 µM (inactive) in assay [11]; 3.63 µM (inactive) in [12]. Besides, the GI50 was 2.71 µM (inactive) in [13]; 14.5 µM (inactive) in [14]; 16 µM (inactive) in [15]; 18.3 µM (inactive) in assay [16]; 2.48 µM (inactive) in assay [17]; 12.6 µM (inactive) in [18]. Besides, the figures for the GI50 in assay [19] and in [20] were 1.8 µM (inactive) and 4.55 µM (inactive), respectively.
As for `CC(Oc1ccc(Cl)cc1Cl)C(=O)NN1C(=O)CSC1c1ccccc1` (stereo not given), the GI50 in assay [1] is 45.4 µM (inactive); in assay [2] it was 90.2 µM (inactive); in assay [3], 54 µM (inactive); in assay [4], 56.8 µM (inactive); in assay [5], 96.4 µM (inactive); in assay [6], 50.2 µM (inactive). Also, the GI50 in assay [7] is 3.89 µM (inactive); in [8] it was 91 µM (inactive); in assay [9], > 100 µM (inactive); in assay [10], 70.8 µM (inactive); in [11], 86.5 µM (inactive); in assay [12] it was > 100 µM (inactive). For the same molecule, the GI50 in assay [13] is 64 µM (inactive); in assay [14], 66.7 µM (inactive); in assay [15] it was > 100 µM (inactive); in assay [16] it was > 100 µM (inactive); in assay [17] it was 49.2 µM (inactive); in assay [18], > 100 µM (inactive). The GI50 in assay [19] was 55.3 µM (inactive); in assay [20] it was 53.2 µM (inactive).
In the case of `O=c1c2c([N+](=O)[O-])cccc2nc2[nH]c3ccccc3n12`, the GI50 in [1] was 14.4 µM (inactive); in [2], 30.2 µM (inactive); in assay [3], 11.9 µM (inactive); in assay [4] it was 15 µM (inactive); in assay [5] it was 20.7 µM (inactive); in [6], 19.5 µM (inactive). For the same molecule, the GI50 in assay [7] was 54.2 µM (inactive); in assay [8] it was 34 µM (inactive); in assay [9], 13.3 µM (inactive); in assay [10] it was 35 µM (inactive); in assay [11], 32.9 µM (inactive); in assay [12] it was 40.7 µM (inactive). Also, the GI50 in assay [13] was 32.4 µM (inactive); in assay [14], > 75 µM (inactive); in assay [15] it was 18.7 µM (inactive); in assay [16], > 75 µM (inactive); in assay [17], 64.1 µM (inactive); in [18], > 75 µM (inactive). For the same molecule, the GI50 in assay [19] is 20.4 µM (inactive); in assay [20] it was > 75 µM (inactive).
In the case of `CCCCNC(=O)c1cc2c(cc1Cl)Sc1nccn1S2(=O)=O`, the GI50 in assay [1] is 70 µM (inactive); in assay [2], 70.8 µM (inactive); in assay [3] it was > 100 µM (inactive); in assay [4] it was 64 µM (inactive); in assay [5] it was 34 µM (inactive); in [6], 86.5 µM (inactive). Also, the GI50 in [7] was 57.3 µM (inactive); in assay [8] it was > 100 µM (inactive); in assay [9], > 100 µM (inactive); in assay [10], 0.0116 µM (active); in [11], > 100 µM (inactive); in assay [12], 60.7 µM (inactive). In addition, the GI50 in [13] is > 100 µM (inactive); in assay [14] it was 77.6 µM (inactive); in assay [15], > 100 µM (inactive); in assay [16], 79.6 µM (inactive); in assay [17], > 100 µM (inactive); in assay [18], 87.1 µM (inactive). Besides, the GI50 in assay [19] was 66.4 µM (inactive); in assay [20], > 100 µM (inactive).
Regarding `COC1=CC(=O)c2c(ccc3ncnc(N)c23)C1=O`, the GI50 in assay [1] is 3.03 µM (inactive); in [2], 2.04 µM (inactive); in assay [3], 1.73 µM (inactive); in assay [4], 1.11 µM (active); in assay [5] it was 1.48 µM (inactive); in assay [6], 1.81 µM (inactive). Further, the GI50 in assay [7] is 0.164 µM (active); in assay [8], 1.82 µM (inactive); in assay [9] it was 1.61 µM (inactive); in assay [10], 1.64 µM (inactive); in assay [11], 1.54 µM (inactive); in assay [12], 3.58 µM (inactive). The GI50 in [13] is 4.41 µM (inactive); in assay [14], 0.665 µM (active); in assay [15], 3.13 µM (inactive); in assay [16] it was 0.573 µM (active); in [17], 1.45 µM (inactive); in assay [18] it was 0.233 µM (active). Moreover, the GI50 in assay [19] is 1.54 µM (inactive); in assay [20], 1.66 µM (inactive).
